The values that follow come from patent US11702404B2, “GLP-1R modulating compounds” (priority 2019, dated 2023).

The structures appear in SMILES notation.

One data set addresses GLP-1R (Homo sapiens, UniProt P43220). Description: GLP-1R activation: cAMP increase in CHO cells stably expressing GLP-1R. Conditions: cAMP increase, CHO cells stably expressing GLP-1R, 10 point dose response, 30 minutes incubation; read-out: EC50. In kind it is cell-based.
The nature of data set [1]: Microsomal stability, human liver microsomes (predicted hepatic clearance). Conditions: predicted from in vitro microsomal stability data.

Sequence of GLP-1R (P43220 24-463): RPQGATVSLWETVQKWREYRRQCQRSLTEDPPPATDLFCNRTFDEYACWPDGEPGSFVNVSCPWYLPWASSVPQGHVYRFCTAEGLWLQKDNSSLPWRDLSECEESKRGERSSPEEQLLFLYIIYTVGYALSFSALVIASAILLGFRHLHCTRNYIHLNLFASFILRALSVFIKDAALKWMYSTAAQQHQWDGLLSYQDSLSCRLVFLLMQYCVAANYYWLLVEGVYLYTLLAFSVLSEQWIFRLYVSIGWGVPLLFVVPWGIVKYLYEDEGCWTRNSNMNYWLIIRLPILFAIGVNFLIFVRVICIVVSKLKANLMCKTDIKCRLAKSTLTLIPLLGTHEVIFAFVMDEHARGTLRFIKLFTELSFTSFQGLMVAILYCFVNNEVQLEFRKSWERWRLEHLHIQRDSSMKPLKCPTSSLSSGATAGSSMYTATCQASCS

By EC50 is commonly meant the concentration at which the effect is half-maximal. With `N#Cc1ccc(COc2ccnc(-c3ccc(Cc4nc5ccc(C(=O)O)cc5n4C[C@@H]4CCO4)cc3F)n2)c(F)c1` [Example 777], the EC50 at GLP-1R is 0.00073 µM. For the same compound, the “Predicted Hepatic Clearance (Pred. Cl.)” value in data set [1] was 4.5 mL/min/kg.

As to `CCOc1cc(C#N)ccc1COc1cccc(-c2ccc(Cc3nc4ccc(C(=O)O)cc4n3CCOC)c(F)c2)n1` [Example 238, 2-(4-(6-((4-cyano-2-ethoxybenzyl)oxy)pyridin-2-yl)-2-fluorobenzyl)-1-(2-methoxyethyl)-1H-benzo[d]imidazole-6-carboxylic acid], the EC50 at GLP-1R stood at 0.012 µM. Moreover, the “Predicted Hepatic Clearance (Pred. Cl.)” value in data set [1] was 8.67 mL/min/kg.

In the case of `COCCn1c(Cc2cc(F)c(-c3nc(OCc4ccc(C(F)F)cc4F)ccc3F)cc2F)nc2c(F)cc(C(=O)O)cc21` [Example 664], the 50% effective concentration (EC50) on GLP-1R stood at 0.00067 µM. In data set [1], the “Predicted Hepatic Clearance (Pred. Cl.)” value is 4.67 mL/min/kg.

`COCCn1c(Cc2cc(F)c(-c3ccc(F)c(NCc4ccc(C#N)cc4F)n3)cc2F)nc2ccc(C(=O)O)cc21` [Example 164, 2-(4-(6-((4-cyano-2-fluorobenzyl)amino)-5-fluoropyridin-2-yl)-2,5-difluorobenzyl)-1-(2-methoxyethyl)-1H-benzo[d]imidazole-6-carboxylic acid]: on GLP-1R, the 50% effective concentration (EC50) was determined as 0.0329 µM. Besides, the “Predicted Hepatic Clearance (Pred. Cl.)” value in data set [1] was 6.7 mL/min/kg.

As to `N#CCC1(Cn2c(Cc3ccc(-c4ncc(F)c(OCc5ccc(C#N)cc5F)n4)c(F)c3)nc3ccc(C(=O)O)cc32)CC1` [Example 127, 2-(4-(4-((4-cyano-2-fluorobenzyl)oxy)-5-fluoropyrimidin-2-yl)-3-fluorobenzyl)-1-((1-(cyanomethyl)cyclopropyl)methyl)-1H-benzo[d]imidazole-6-carboxylic acid], at GLP-1R, the EC50 was 0.00034 µM. Also, the “Predicted Hepatic Clearance (Pred. Cl.)” value in data set [1] was 6.7 mL/min/kg.

Turning to `N#Cc1ccc(COc2cccc(-c3ccc(Cc4nc5ccc(C(=O)O)cc5n4Cc4cncnc4)c(F)c3)n2)c(F)c1` [Example 532, 2-(4-(6-((4-cyano-2-fluorobenzyl)oxy)pyridin-2-yl)-2-fluorobenzyl)-1-(pyrimidin-5-ylmethyl)-1H-benzo[d]imidazole-6-carboxylic acid], the EC50 at GLP-1R was found to be 0.0586 µM. Besides, the “Predicted Hepatic Clearance (Pred. Cl.)” value in data set [1] is below 1.83 mL/min/kg.

Take `COCCn1c(Cc2ccc(-c3cccc(OCc4c(F)cc(Cl)cc4OC)n3)cc2F)nc2ccc(C(=O)O)cc21` [Example 435, 2-(4-(6-((4-chloro-2-fluoro-6-methoxybenzyl)oxy)pyridin-2-yl)-2-fluorobenzyl)-1-(2-methoxyethyl)-1H-benzo[d]imidazole-6-carboxylic acid]: the EC50 at GLP-1R worked out at 0.0087 µM. Also, the “Predicted Hepatic Clearance (Pred. Cl.)” value in data set [1] is 6.17 mL/min/kg.

For the compound `COCCn1c(Cc2ccc(-n3ccc(OCc4ccccc4)n3)cc2F)nc2ccc(C(=O)O)cc21` [Example 89, 2-(4-(3-(benzyloxy)-1H-pyrazol-1-yl)-2-fluorobenzyl)-1-(2-methoxyethyl)-1H-benzo[d]imidazole-6-carboxylic acid], the EC50 on GLP-1R was determined as 1.65 µM. Further, the “Predicted Hepatic Clearance (Pred. Cl.)” value in data set [1] is 8.83 mL/min/kg.

Take `COCCn1c(Cc2ccc(-c3cccc(OCc4ccccc4NS(C)(=O)=O)n3)cc2F)nc2ccc(C(=O)O)cc21` [Example 516, 2-(2-fluoro-4-(6-((2-(methylsulfonamido)benzyl)oxy)pyridin-2-yl)benzyl)-1-(2-methoxyethyl)-1H-benzo[d]imidazole-6-carboxylic acid]: the EC50 at GLP-1R was 2.46 µM. Further, the “Predicted Hepatic Clearance (Pred. Cl.)” value in data set [1] was below 1.83 mL/min/kg.

For the compound `COCCn1c(Cc2ccc(-c3nc(OCc4ccc(C#N)cc4F)ccc3F)c(F)c2)nc2ccc(C(=O)O)cc21` [Example 114, 2-[[4-[6-[(4-cyano-2-fluoro-phenyl)methoxy]-3-fluoro-2-pyridyl]-3-fluoro-phenyl]methyl]-3-(2-methoxyethyl)benzimidazole-5-carboxylic acid], the EC50 on GLP-1R came to 0.932 µM. The “Predicted Hepatic Clearance (Pred. Cl.)” value in data set [1] is 5.92 mL/min/kg.

In the case of `COCCn1c(Cc2cc(F)c(-c3cccc(OCc4ccc(C(F)(F)F)cn4)n3)cc2F)nc2ccc(C(=O)O)cc21` [Example 868], the EC50 at GLP-1R was found to be 0.00548 µM. The “Predicted Hepatic Clearance (Pred. Cl.)” value in data set [1] is 3.5 mL/min/kg.

`COCCn1c(Cc2cc(F)c(-c3cccc(OCc4ccc(C#N)c(F)c4F)n3)cc2F)nc2ccc(C(=O)O)cc21` [Example 859]: the concentration giving a half-maximal response (EC50) at GLP-1R was 0.0116 µM. Also, in data set [1], the “Predicted Hepatic Clearance (Pred. Cl.)” value was 1.83 mL/min/kg.

On to `COCCn1c(Cc2ccc(-c3cccc(OCc4ccccc4-c4ccccc4)n3)cc2F)nc2ccc(C(=O)O)cc21` [Example 500, 2-(4-(6-([1,1′-biphenyl]-2-ylmethoxy)pyridin-2-yl)-2-fluorobenzyl)-1-(2-methoxyethyl)-1H-benzo[d]imidazole-6-carboxylic acid], for which the EC50 on GLP-1R is 0.474 µM. In data set [1], the “Predicted Hepatic Clearance (Pred. Cl.)” value was 9.67 mL/min/kg.

`COCCn1c(Cc2ccc(-c3cccc(OCc4ccncc4OC)n3)c(F)c2)nc2ccc(C(=O)O)cc21` [Example 96, 2-(3-fluoro-4-(6-((3-methoxypyridin-4-yl)methoxy)pyridin-2-yl)benzyl)-1-(2-methoxyethyl)-1H-benzo[d]imidazole-6-carboxylic acid]: the concentration for a half-maximal effect (EC50) on GLP-1R stood at 0.0309 µM. The “Predicted Hepatic Clearance (Pred. Cl.)” value in data set [1] is 17.8 mL/min/kg.

On to `COCCn1c(Cn2ccc(-c3cccc(OCc4ccc(C#N)cc4F)n3)cc2=O)nc2ccc(C(=O)O)cc21` [Example 61, 2-((6-((4-cyano-2-fluorobenzyl)oxy)-2′-oxo-[2,4′-bipyridin]-1′(2′H)-yl)methyl)-1-(2-methoxyethyl)-1H-benzo[d]imidazole-6-carboxylic acid], for which the EC50 at GLP-1R turned out to be 0.018 µM. The “Predicted Hepatic Clearance (Pred. Cl.)” value in data set [1] was below 1.83 mL/min/kg.

With `COCCn1c(Cc2cc(F)c(-c3cccc(OCc4ccc(C#N)cc4)n3)cc2F)nc2c(F)cc(C(=O)O)cc21` [Example 799], the EC50 at GLP-1R stood at 0.135 µM. In addition, the “Predicted Hepatic Clearance (Pred. Cl.)” value in data set [1] was 2.67 mL/min/kg.

Turning to `COCCn1c(Cc2ccc(-c3cccc(OCc4cccc(OC(F)F)c4F)n3)cc2F)nc2ccc(C(=O)O)cc21` [Example 138, 2-(4-(6-((3-(difluoromethoxy)-2-fluorobenzyl)oxy)pyridin-2-yl)-2-fluorobenzyl)-1-(2-methoxyethyl)-1H-benzo[d]imidazole-6-carboxylic acid], at GLP-1R, the concentration giving a half-maximal response (EC50) was 0.0847 µM. In addition, the “Predicted Hepatic Clearance (Pred. Cl.)” value in data set [1] was 7.5 mL/min/kg.

Consider `O=C(O)c1ccc2nc(Cc3cc(F)c(-c4cccc(OCc5ccc(C(F)(F)F)cc5F)n4)cc3F)n(C[C@@H]3CCO3)c2c1` [Example 665], for which, at GLP-1R, the half-maximal effective concentration (EC50) stood at 0.00051 µM. For the same compound, in data set [1], the “Predicted Hepatic Clearance (Pred. Cl.)” value was 1.83 mL/min/kg.

`N#Cc1ccc(COc2ccc(F)c(-c3cc(F)c(Cc4nc5c(F)cc(C(=O)O)cc5n4CC45COC(C4)C5)cc3F)n2)c(F)c1` [Example 782]: the EC50 at GLP-1R came to 0.00331 µM. In data set [1], the “Predicted Hepatic Clearance (Pred. Cl.)” value is 11.2 mL/min/kg.

As to `N#Cc1ccc(COc2cccc(-c3ccc(Cc4nc5ccc(C(=O)O)cc5n4C[C@@H]4CCO4)cc3F)n2)cn1` [Example 656], on GLP-1R, the concentration giving a half-maximal response (EC50) was determined as 0.00152 µM. In addition, in data set [1], the “Predicted Hepatic Clearance (Pred. Cl.)” value was 4.67 mL/min/kg.

With `N#CCC1(Cn2c(Cc3ccc(-c4cccc(OCc5ccc(C#N)cc5F)n4)cc3F)nc3ccc(C(=O)O)cc32)CC1` [Example 16, 2-(4-(6-((4-cyano-2-fluorobenzyl)oxy)pyridin-2-yl)-2-fluorobenzyl)-1-((1-(cyanomethyl)cyclopropyl)methyl)-1H-benzo[d]imidazole-6-carboxylic acid], the EC50 on GLP-1R was determined as 0.00055 µM. Further, in data set [1], the “Predicted Hepatic Clearance (Pred. Cl.)” value is 5.5 mL/min/kg.
